Test results taken from ChEMBL document CHEMBL1152667, “Synthesis and radiopharmacological investigation of 3-[4'-[(18)F]fluorobenzylidene]indolin-2-one as possible tyrosine kinase inhibitor” (Bioorg Med Chem, 2009).

Assays:
Lung [1] = assay: Biodistribution in Wistar rat lung assessed as standard uptake value at 1.7 MBq, iv administered as single dose measured after 5 mins post-injection by gamma counting; format: ADME, organism-based; settings: in vivo
Blood [2] = assay: Biodistribution in Wistar rat blood assessed as standard uptake value at 1.7 MBq, iv administered as single dose measured after 30 mins post-injection by gamma counting; format: ADME, organism-based; settings: in vivo, 0.5 h
Thymus [3] = assay: Biodistribution in Wistar rat thymus assessed as standard uptake value at 1.7 MBq, iv administered as single dose measured after 60 mins post-injection by gamma counting; format: ADME, organism-based; settings: in vivo, 1 h
Kidney [4] = assay: Biodistribution in Wistar rat kidney assessed as standard uptake value at 1.7 MBq, iv administered as single dose measured after 30 mins post-injection by gamma counting; format: ADME, organism-based; settings: in vivo, 0.5 h
Lung [5] = assay: Biodistribution in Wistar rat lung at 1.7 MBq, iv administered as single dose measured after 10 mins post-injection by gamma counting; format: ADME, organism-based; settings: in vivo
Spleen [6] = assay: Biodistribution in Wistar rat spleen assessed as standard uptake value at 1.7 MBq, iv administered as single dose measured after 30 mins post-injection by gamma counting; format: ADME, organism-based; settings: in vivo, 0.5 h
[7] = Biodistribution in Wistar rat stomach at 1.7 MBq, iv administered as single dose measured after 60 mins post-injection by gamma counting; format: ADME, organism-based; settings: in vivo, 1 h
[8] = Ratio of drug level in harderian gland to blood in Wistar rat at 1.7 MBq, iv administered as single dose measured after 60 mins post-injection; format: ADME, organism-based
Liver [9] = assay: Biodistribution in Wistar rat liver assessed as standard uptake value at 1.7 MBq, iv administered as single dose measured after 60 mins post-injection by gamma counting; format: ADME, organism-based; settings: in vivo, 1 h
Harderian gland [10] = assay: Biodistribution in Wistar rat harderian gland assessed as standard uptake value at 1.7 MBq, iv administered as single dose measured after 1 min post-injection by gamma counting; format: ADME, organism-based; settings: in vivo
Kidney [11] = assay: Biodistribution in Wistar rat kidney at 1.7 MBq, iv administered as single dose measured after 1 min post-injection by gamma counting; format: ADME, organism-based; settings: in vivo
[12] = Biodistribution in Wistar rat thyroid gland at 1.7 MBq, iv administered as single dose measured after 5 mins post-injection by gamma counting; format: ADME, organism-based; settings: in vivo
[13] = Metabolic stability in Wistar rat plasma assessed as compound remaining at 0.5 MBq after 60 mins by radio-HPLC analysis; format: ADME, cell-free; settings: read-out: Stability
Heart = assay: Biodistribution in Wistar rat heart at 1.7 MBq, iv administered as single dose measured after 5 mins post-injection by gamma counting; format: ADME, organism-based; settings: in vivo
Harderian gland [14] = assay: Biodistribution in Wistar rat harderian gland assessed as standard uptake value at 1.7 MBq, iv administered as single dose measured after 5 mins post-injection by gamma counting; format: ADME, organism-based; settings: in vivo
Brain [15] = assay: Biodistribution in Wistar rat brain assessed as standard uptake value at 1.7 MBq, iv administered as single dose measured after 1 min post-injection by gamma counting; format: ADME, organism-based; settings: in vivo
Harderian gland [16] = assay: Biodistribution in Wistar rat harderian gland assessed as standard uptake value at 1.7 MBq, iv administered as single dose measured after 10 mins post-injection by gamma counting; format: ADME, organism-based; settings: in vivo
Spleen [17] = assay: Biodistribution in Wistar rat spleen at 1.7 MBq, iv administered as single dose measured after 60 mins post-injection by gamma counting; format: ADME, organism-based; settings: in vivo, 1 h
Femur = assay: Biodistribution in Wistar rat femur assessed as standard uptake value at 1.7 MBq, iv administered as single dose measured after 30 mins post-injection by gamma counting; format: ADME, organism-based; settings: in vivo, 0.5 h
Harderian gland [18] = assay: Biodistribution in Wistar rat harderian gland at 1.7 MBq, iv administered as single dose measured after 60 mins post-injection by gamma counting; format: ADME, organism-based; settings: in vivo, 1 h
Liver [19] = assay: Biodistribution in Wistar rat liver at 1.7 MBq, iv administered as single dose measured after 5 mins post-injection by gamma counting; format: ADME, organism-based; settings: in vivo
[20] = Biodistribution in Wistar rat thyroid gland at 1.7 MBq, iv administered as single dose measured after 1 min post-injection by gamma counting; format: ADME, organism-based; settings: in vivo
Intestine = assay: Biodistribution in Wistar rat intestine at 1.7 MBq, iv administered as single dose measured after 1 min post-injection by gamma counting; format: ADME, organism-based; settings: in vivo
Kidney [21] = assay: Biodistribution in Wistar rat kidney at 1.7 MBq, iv administered as single dose measured after 10 mins post-injection by gamma counting; format: ADME, organism-based; settings: in vivo
Spleen [22] = assay: Biodistribution in Wistar rat spleen at 1.7 MBq, iv administered as single dose measured after 30 mins post-injection by gamma counting; format: ADME, organism-based; settings: in vivo, 0.5 h
Thymus [23] = assay: Biodistribution in Wistar rat thymus assessed as standard uptake value at 1.7 MBq, iv administered as single dose measured after 5 mins post-injection by gamma counting; format: ADME, organism-based; settings: in vivo
Harderian gland [24] = assay: Biodistribution in Wistar rat harderian gland at 1.7 MBq, iv administered as single dose measured after 1 min post-injection by gamma counting; format: ADME, organism-based; settings: in vivo
[25] = Biodistribution in Wistar rat hair/skin assessed as standard uptake value at 1.7 MBq, iv administered as single dose measured after 30 mins post-injection by gamma counting; format: ADME, organism-based; settings: in vivo, 0.5 h
[26] = Metabolic stability in Wistar rat blood assessed as compound remaining at 30 MBq, iv after 1 min by radio-HPLC analysis; format: ADME, organism-based; settings: read-out: Stability
Spleen [27] = assay: Biodistribution in Wistar rat spleen at 1.7 MBq, iv administered as single dose measured after 1 min post-injection by gamma counting; format: ADME, organism-based; settings: in vivo
Thymus [28] = assay: Biodistribution in Wistar rat thymus assessed as standard uptake value at 1.7 MBq, iv administered as single dose measured after 10 mins post-injection by gamma counting; format: ADME, organism-based; settings: in vivo
[29] = Biodistribution in Wistar rat brown adipose tissue assessed as standard uptake value at 1.7 MBq, iv administered as single dose measured after 1 min post-injection by gamma counting; format: ADME, organism-based; settings: in vivo
[30] = Ratio of drug level in brain to blood in Wistar rat at 1.7 MBq, iv administered as single dose measured after 5 mins post-injection; format: ADME, organism-based
[31] = Biodistribution in Wistar rat stomach at 1.7 MBq, iv administered as single dose measured after 5 mins post-injection by gamma counting; format: ADME, organism-based; settings: in vivo
Brain [32] = assay: Biodistribution in Wistar rat brain assessed as standard uptake value at 1.7 MBq, iv administered as single dose measured after 5 mins post-injection by gamma counting; format: ADME, organism-based; settings: in vivo
Pancreas = assay: Biodistribution in Wistar rat pancreas at 1.7 MBq, iv administered as single dose measured after 10 mins post-injection by gamma counting; format: ADME, organism-based; settings: in vivo
Kidney [33] = assay: Biodistribution in Wistar rat kidney assessed as standard uptake value at 1.7 MBq, iv administered as single dose measured after 60 mins post-injection by gamma counting; format: ADME, organism-based; settings: in vivo, 1 h
Blood [34] = assay: Biodistribution in Wistar rat blood assessed as standard uptake value at 1.7 MBq, iv administered as single dose measured after 10 mins post-injection by gamma counting; format: ADME, organism-based; settings: in vivo
Adrenal gland = assay: Biodistribution in Wistar rat adrenal gland assessed as standard uptake value at 1.7 MBq, iv administered as single dose measured after 10 mins post-injection by gamma counting; format: ADME, organism-based; settings: in vivo
[35] = Ratio of drug level in liver to blood in Wistar rat at 1.7 MBq, iv administered as single dose measured after 5 mins post-injection; format: ADME, organism-based
Thymus [36] = assay: Biodistribution in Wistar rat thymus at 1.7 MBq, iv administered as single dose measured after 1 min post-injection by gamma counting; format: ADME, organism-based; settings: in vivo
[37] = Biodistribution in Wistar rat brown adipose tissue assessed as standard uptake value at 1.7 MBq, iv administered as single dose measured after 30 mins post-injection by gamma counting; format: ADME, organism-based; settings: in vivo, 0.5 h

SUV (Lung [1]): 1.3% | SUV (Blood [2]): 0.27% | SUV (Thymus [3]): 0.13% | SUV (Kidney [4]): 1.69% | Drug uptake (Lung [5]): 0.66 %ID | SUV (Spleen [6]): 0.28% | Drug uptake [7]: 0.6 %ID | Kp at 1 h [8]: 6.8 | SUV (Liver [9]): 1.3% | SUV (Harderian gland [10]): 1.92% | Drug uptake (Kidney [11]): 3.13 %ID | Drug uptake [12]: 0.08 %ID | remaining at 1 h, 0.5 MBq [13]: 96% | Drug uptake (Heart): 0.54 %ID | SUV (Harderian gland [14]): 2.43% | SUV (Brain [15]): 2.84% | SUV (Harderian gland [16]): 1.91% | Drug uptake (Spleen [17]): 0.04 %ID | SUV (Femur): 0.28% | Drug uptake (Harderian gland [18]): 0.06 %ID | Drug uptake (Liver [19]): 18.4 %ID | Drug uptake [20]: 0.09 %ID | Drug uptake (Intestine): 8.84 %ID | Drug uptake (Kidney [21]): 2.28 %ID | Drug uptake (Spleen [22]): 0.08 %ID | SUV (Thymus [23]): 0.82% | Drug uptake (Harderian gland [24]): 0.29 %ID | SUV [25]: 0.48% | remaining at 1 min [26]: 70% | Drug uptake (Spleen [27]): 0.31 %ID | SUV (Thymus [28]): 0.53% | SUV [29]: 1.42% | Kp at 5 min [30]: 3 | Drug uptake [31]: 0.94 %ID | SUV (Brain [32]): 1.67% | Drug uptake (Pancreas): 0.28 %ID | SUV (Kidney [33]): 0.99% | SUV (Blood [34]): 0.47% | SUV (Adrenal gland): 3.2% | Kp at 5 min [35]: 6.7 | Drug uptake (Thymus [36]): 0.5 %ID | SUV [37]: 0.98%
Structure (SMILES): O=C1Nc2ccccc2/C1=C/c1ccc([18F])cc1
